Our source for the MIC values is patent publication US9487516B2, “Antibacterial oxadiazolone derivatives” (priority 2013, dated 2016).

Converted amounts (≈) assume the structure as drawn.

As a reminder, the MIC is the lowest concentration that inhibits growth of the organism.

Assay in all cases: Bacterial growth minimal inhibitory concentration (microdilution, cation-adjusted Mueller-Hinton Broth)
What all share (format): cell-based

Experiment [1] concerns Acinetobacter baumanii T6474. Conditions: Acinetobacter baumannii, multiply-resistant strain (in particular quinolone-resistant). As for the experimental part:
(§1) Minimal Inhibitory Concentrations (MICs; mg/L) were determined in cation-adjusted MuellerHinton Broth by a microdilution method following the description given in “Methods for Dilution Antimicrobial Susceptibility Tests for Bacteria that Grow Aerobically”, Approved standard, 7th ed., Clinical and Laboratory Standards Institute (CLSI) Document M7-A7, Wayne, Pa., USA, 2006.
(§2) All Example compounds were tested against several Gram positive and Gram negative bacteria. […] Staphylococcus aureus A798, Enterococcus faecium A949 and Acinetobacter baumanii T6474 are multiply-resistant strains (in particular quinolone-resistant), while Moraxella catarrhalis A894 is a quinolone-sensitive strain and Staphylococcus aureus ATCC29213 is a methicillin-sensitive and quinolone-sensitive strain.

Experiment [2] deals with Enterococcus faecium A949. The conditions noted are these: multiply-resistant strain (in particular quinolone-resistant), read-out: MIC for E. faecium A949. The procedure: as §1, §2
Experiment [3] concerns Moraxella catarrhalis A894. The conditions noted are these: quinolone-sensitive strain. The procedure: as §1, §2
Experiment [4] deals with Staphylococcus aureus A798. The conditions noted are these: multiply-resistant strain (in particular quinolone-resistant), read-out: MIC for S. aureus A798. As for the experimental part:
as §1, §2

Experiment [5] concerns Staphylococcus aureus ATCC29213. The conditions noted are these: methicillin-sensitive and quinolone-sensitive strain, read-out: MIC for S. aureus ATCC29213. The procedure: as §1, §2

As for `CCSc1ccc(-n2nc(CCCN[C@H]3Cn4c(=O)cnc5ccc(F)c3c54)oc2=O)cc1` [Example 5, (R)-6-{3-[4-(4-ethylsulfanyl-phenyl)-5-oxo-4,5-dihydro-[1,3,4]oxadiazol-2-yl]-propylamino}-7-fluoro-5,6-dihydro-pyrrolo[1,2,3-de]quinoxalin-3-one], the MIC came out at 4 µg/mL (≈ 8.56 µM) in experiment [1]; 0.5 µg/mL (≈ 1.07 µM) in experiment [2]; 0.25 µg/mL (≈ 0.535 µM) in experiment [3]; 0.063 µg/mL (≈ 0.135 µM) in experiment [4]; 0.031 µg/mL (≈ 0.0663 µM) in experiment [5].

On to `O=C1COc2ccc(-n3nc(CCCN[C@@H]4Cn5c(=O)ccc6ncc(F)c4c65)oc3=O)nc2N1` [Example 37, (S)-3-fluoro-4-{3-[5-oxo-4-(3-oxo-3,4-dihydro-2H-pyrido[3,2-b][1,4]oxazin-6-yl)-4,5-dihydro-[1,3,4]oxadiazol-2-yl]-propylamino}-4,5-dihydro-pyrrolo[3,2,1-de][1,5]naphthyridin-7-one], for which the MIC in experiment [1] came to 2 µg/mL (≈ 4.17 µM); in experiment [2] it was 4 µg/mL (≈ 8.34 µM); in experiment [3], 0.125 µg/mL (≈ 0.261 µM); in experiment [4] it was 0.25 µg/mL (≈ 0.521 µM); in experiment [5], 0.25 µg/mL (≈ 0.521 µM).

Consider `O=C1COc2ccc(-n3nc(CCCN[C@@H]4Cn5c(=O)ccc6cccc4c65)oc3=O)nc2N1` [Example 34, (S)-1-{3-[5-oxo-4-(3-oxo-3,4-dihydro-2H-pyrido[3,2-b][1,4]oxazin-6-yl)-4,5-dihydro-[1,3,4]oxadiazol-2-yl]-propylamino}-1,2-dihydro-pyrrolo[3,2,1-ij]quinolin-4-one], for which the MIC came out at 4 µg/mL (≈ 8.69 µM) in experiment [1]; 8 µg/mL (≈ 17.4 µM) in experiment [2]; 1 µg/mL (≈ 2.17 µM) in experiment [3]; 4 µg/mL (≈ 8.69 µM) in experiment [4]; 2 µg/mL (≈ 4.34 µM) in experiment [5].

For `O=C1CSc2ccc(-n3nc(CCCN[C@@H]4Cn5c(=O)ccc6ccc(F)c4c65)oc3=O)cc2N1` [Example 15, (S)-9-fluoro-1-{3-[5-oxo-4-(3-oxo-3,4-dihydro-2H-benzo[1,4]-thiazin-6-yl)-4,5-dihydro-[1,3,4]oxadiazol-2-yl]-propylamino}-1,2-dihydro-pyrrolo[3,2,1-ij]quinolin-4-one], the MIC in experiment [1] was 0.125 µg/mL (≈ 0.253 µM); in experiment [2], 0.063 µg/mL (≈ 0.128 µM); in experiment [3], at most 0.016 µg/mL; in experiment [4], at most 0.016 µg/mL; in experiment [5], at most 0.016 µg/mL.

In the case of `Cc1ccc2ccc(=O)n3c2c1[C@H](NCCCc1nn(-c2ccc4c(n2)NC(=O)CO4)c(=O)o1)C3` [Example 40, (S)-9-methyl-1-{3-[5-oxo-4-(3-oxo-3,4-dihydro-2H-pyrido[3,2-b][1,4]oxazin-6-yl)-4,5-dihydro-[1,3,4]oxadiazol-2-yl]-propylamino}-1,2-dihydro-pyrrolo[3,2,1-ij]quinolin-4-one], the MIC stood at 2 µg/mL (≈ 4.22 µM) in experiment [1]; 2 µg/mL (≈ 4.22 µM) in experiment [2]; 0.5 µg/mL (≈ 1.05 µM) in experiment [3]; 2 µg/mL (≈ 4.22 µM) in experiment [4]; 1 µg/mL (≈ 2.11 µM) in experiment [5].

As to `O=C1COc2ccc(-n3nc(CCCN[C@H]4Cn5c(=O)ccc6ccc(F)c4c65)oc3=O)nc2N1` [Example 9, (R)-9-fluoro-1-{3-[5-oxo-4-(3-oxo-3,4-dihydro-2H-pyrido[3,2-b][1,4]oxazin-6-yl)-4,5-dihydro-[1,3,4]oxadiazol-2-yl]-propylamino}-1,2-dihydro-pyrrolo[3,2,1-ij]quinolin-4-one], the MIC in experiment [1] was 1 µg/mL (≈ 2.09 µM); in experiment [2] it was 0.5 µg/mL (≈ 1.05 µM); in experiment [3] it was 0.125 µg/mL (≈ 0.261 µM); in experiment [4], 0.25 µg/mL (≈ 0.523 µM); in experiment [5], 0.125 µg/mL (≈ 0.261 µM).

`CCOc1ccc(-n2nc(CCCN[C@H]3Cn4c(=O)ccc5ccc(F)c3c54)oc2=O)cc1` [Example 29, (R)-1-{3-[4-(4-ethoxy-phenyl)-5-oxo-4,5-dihydro-[1,3,4]oxadiazol-2-yl]-propylamino}-9-fluoro-1,2-dihydro-pyrrolo[3,2,1-ij]quinolin-4-one]: the MIC in experiment [1] was 4 µg/mL (≈ 8.88 µM); in experiment [2], over 8 µg/mL; in experiment [3] it was 8 µg/mL (≈ 17.8 µM); in experiment [4], 4 µg/mL (≈ 8.88 µM); in experiment [5], 2 µg/mL (≈ 4.44 µM).

Consider `CCCc1ccc(-n2nc(CCCN[C@H]3Cn4c(=O)ccc5ccc(F)c3c54)oc2=O)cc1` [Example 26, (R)-9-fluoro-1-{3-[5-oxo-4-(4-propyl-phenyl)-4,5-dihydro-[1,3,4]oxadiazol-2-yl]-propylamino}-1,2-dihydro-pyrrolo[3,2,1-ij]quinolin-4-one], for which the MIC is 2 µg/mL (≈ 4.46 µM) in experiment [1]; 0.5 µg/mL (≈ 1.11 µM) in experiment [2]; 0.5 µg/mL (≈ 1.11 µM) in experiment [3]; 0.5 µg/mL (≈ 1.11 µM) in experiment [4]; 0.125 µg/mL (≈ 0.279 µM) in experiment [5].

`O=C1COc2ccc(-n3nc(CCCN[C@H]4Cn5c(=O)cnc6ccc(F)c4c65)oc3=O)cc2N1` [Example 13, (R)-7-fluoro-6-{3-[5-oxo-4-(3-oxo-3,4-dihydro-2H-benzo[1,4]oxazin-6-yl)-4,5-dihydro-[1,3,4]oxadiazol-2-yl]-propylamino}-5,6-dihydro-pyrrolo[1,2,3-de]quinoxalin-3-one]: the minimal inhibitory concentration (MIC) is 0.25 µg/mL (≈ 0.523 µM) in experiment [1]; 0.25 µg/mL (≈ 0.523 µM) in experiment [2]; at most 0.016 µg/mL in experiment [3]; 0.031 µg/mL (≈ 0.0648 µM) in experiment [4]; 0.031 µg/mL (≈ 0.0648 µM) in experiment [5].

Consider `O=c1oc(CCCN[C@H]2Cn3c(=O)cnc4ccc(F)c2c43)nn1-c1ccc2c(c1)OCCO2` [Example 25, (R)-6-{3-[4-(2,3-dihydro-benzo[1,4]dioxin-6-yl)-5-oxo-4,5-dihydro-[1,3,4]oxadiazol-2-yl]-propylamino}-7-fluoro-5,6-dihydro-pyrrolo[1,2,3-de]quinoxalin-3-one], for which the MIC came to 8 µg/mL (≈ 17.2 µM) in experiment [1]; 8 µg/mL (≈ 17.2 µM) in experiment [2]; 8 µg/mL (≈ 17.2 µM) in experiment [3]; 4 µg/mL (≈ 8.59 µM) in experiment [4]; 2 µg/mL (≈ 4.3 µM) in experiment [5].

With `N#Cc1ccc2ccc(=O)n3c2c1[C@H](NCCCc1nn(-c2ccc4c(n2)NC(=O)CO4)c(=O)o1)C3` [Example 41, (S)-4-oxo-1-{3-[5-oxo-4-(3-oxo-3,4-dihydro-2H-pyrido[3,2-b][1,4]oxazin-6-yl)-4,5-dihydro-[1,3,4]oxadiazol-2-yl]-propylamino}-1,2-dihydro-4H-pyrrolo[3,2,1-ij]quinoline-9-carbonitrile], the MIC stood at 0.125 µg/mL (≈ 0.257 µM) in experiment [1]; 0.5 µg/mL (≈ 1.03 µM) in experiment [2]; 0.063 µg/mL (≈ 0.13 µM) in experiment [3]; 0.125 µg/mL (≈ 0.257 µM) in experiment [4]; 0.063 µg/mL (≈ 0.13 µM) in experiment [5].

For the compound `CCCc1ccc(-n2nc(CCCN[C@@H]3Cn4c(=O)cnc5ccc(F)c3c54)oc2=O)cc1` [Example 27, (S)-7-fluoro-6-{3-[5-oxo-4-(4-propyl-phenyl)-4,5-dihydro-[1,3,4]oxadiazol-2-yl]-propylamino}-5,6-dihydro-pyrrolo[1,2,3-de]quinoxalin-3-one], the MIC in experiment [1] is 4 µg/mL (≈ 8.9 µM); in experiment [2], 2 µg/mL (≈ 4.45 µM); in experiment [3], 4 µg/mL (≈ 8.9 µM); in experiment [4], 2 µg/mL (≈ 4.45 µM); in experiment [5] it was 0.5 µg/mL (≈ 1.11 µM).

For `O=C1COc2ccc(-n3nc(CCCN[C@@H]4Cn5c(=O)cnc6ccc(F)c4c65)oc3=O)nc2N1` [Example 7, (S)-7-fluoro-6-{3-[5-oxo-4-(3-oxo-3,4-dihydro-2H-pyrido[3,2-b][1,4]oxazin-6-yl)-4,5-dihydro-[1,3,4]oxadiazol-2-yl]-propylamino}-5,6-dihydro-pyrrolo[1,2,3-de]quinoxalin-3-one], the minimum inhibitory concentration (MIC) in experiment [1] was determined as 2 µg/mL (≈ 4.17 µM); in experiment [2], 2 µg/mL (≈ 4.17 µM); in experiment [3] it was 0.25 µg/mL (≈ 0.521 µM); in experiment [4], 0.5 µg/mL (≈ 1.04 µM); in experiment [5], 0.25 µg/mL (≈ 0.521 µM).

Regarding `O=C1CSc2ccc(-n3nc(CCCN[C@H]4Cn5c(=O)cnc6ccc(F)c4c65)oc3=O)cc2N1` [Example 21, (R)-7-fluoro-6-{3-[5-oxo-4-(3-oxo-3,4-dihydro-2H-benzo[1,4]-thiazin-6-yl)-4,5-dihydro-[1,3,4]oxadiazol-2-yl]-propylamino}-5,6-dihydro-pyrrolo[1,2,3-de]quinoxalin-3-one], the MIC in experiment [1] is at most 0.016 µg/mL; in experiment [2] it was 0.25 µg/mL (≈ 0.506 µM); in experiment [3] it was 0.063 µg/mL (≈ 0.127 µM); in experiment [4], at most 0.016 µg/mL; in experiment [5], at most 0.016 µg/mL.

As to `CCSc1ccc(-n2nc(CCCN[C@H]3Cn4c(=O)ccc5ccc(F)c3c54)oc2=O)cc1` [Example 32, (R)-1-{3-[4-(4-ethylsulfanyl-phenyl)-5-oxo-4,5-dihydro-[1,3,4]oxadiazol-2-yl]-propylamino}-9-fluoro-1,2-dihydro-pyrrolo[3,2,1-ij]quinolin-4-one], the MIC came to 0.5 µg/mL (≈ 1.07 µM) in experiment [1]; 0.5 µg/mL (≈ 1.07 µM) in experiment [2]; 0.5 µg/mL (≈ 1.07 µM) in experiment [3]; 0.25 µg/mL (≈ 0.536 µM) in experiment [4]; 0.063 µg/mL (≈ 0.135 µM) in experiment [5].

Regarding `O=C1COc2ccc(-n3nc(CCCN[C@H]4Cn5c(=O)ccc6ncc(F)c4c65)oc3=O)nc2N1` [Example 38, (R)-3-fluoro-4-{3-[5-oxo-4-(3-oxo-3,4-dihydro-2H-pyrido[3,2-b][1,4]oxazin-6-yl)-4,5-dihydro-[1,3,4]oxadiazol-2-yl]-propylamino}-4,5-dihydro-pyrrolo[3,2,1-de][1,5]naphthyridin-7-one], the MIC in experiment [1] stood at 2 µg/mL (≈ 4.17 µM); in experiment [2] it was 4 µg/mL (≈ 8.34 µM); in experiment [3] it was 0.5 µg/mL (≈ 1.04 µM); in experiment [4] it was 0.5 µg/mL (≈ 1.04 µM); in experiment [5] it was 0.5 µg/mL (≈ 1.04 µM).

With `O=C1CSc2ccc(-n3nc(CCCN[C@@H]4Cn5c(=O)ccc6ccc(F)c4c65)oc3=O)nc2N1` [Example 17, (S)-9-fluoro-1-{3-[5-oxo-4-(3-oxo-3,4-dihydro-2H-pyrido[3,2-b][1,4]-thiazin-6-yl)-4,5-dihydro-[1,3,4]oxadiazol-2-yl]-propylamino}-1,2-dihydro-pyrrolo[3,2,1-ij]quinolin-4-one], the MIC was 0.25 µg/mL (≈ 0.506 µM) in experiment [1]; 0.25 µg/mL (≈ 0.506 µM) in experiment [2]; 0.031 µg/mL (≈ 0.0627 µM) in experiment [3]; 0.063 µg/mL (≈ 0.127 µM) in experiment [4]; 0.031 µg/mL (≈ 0.0627 µM) in experiment [5].
